Reference: US20260085315A1, “POLYNUCLEOTIDE COMPOSITIONS AND METHODS FOR TREATMENT OF CANCER” (APTAH BIO, INC., priority 2023, published 2026)
Several values for one entry are separate records, joined by “and”; a condition that tells them apart may be missing. Identical values can stand only once. Entries after “also recorded” stand apart in the source; their conditions may differ. d = 2'-deoxy (DNA); m = 2'-O-methyl

How the values were obtained:
[1] = tested on: Human Glioblastoma Cancer (U-87MG) xenograft; experiment: Human glioblastoma xenograft tumor growth; assay type: in vivo, athymic nude mice; details: for tumor reduction in relation to the negative control: APT20TTMG 20 mg/kg i.v. q3d, TMZ 5 mg/kg p.o. daily
Procedure: Subcutaneous inoculation of the tumorigenic Human Glioblastoma Cancer Cell line (U-87MG) results in the formation of solid tumor in athymic nude mice. Under pathogen free conditions, the tumor retains its own characteristics and grows using the growth factors supplied by the host animal. The ability of administered ASMO1 to inhibit the growth of tumor can be a valuable tool to evaluate its efficacy as an anti-tumor agent. Measurement of tumor size at defined intervals of time generates data that can be used to calculate various end point parameters derived from tumor and understand the potency of the test compounds.
Human glioblastoma cancer cells (U-87MG) were cultured and expanded in EMEM (Eagle's Minimum Essential Medium) supplemented with 10% Fetal Bovine Serum (FBS) at 37° C. and 5% CO2. The cells growing at log phase were harvested by trypsinization and centrifuged for 3 minutes at 800 rpm to form a pellet. The pellet was further washed with PBS. Cell suspension stock was prepared to obtain the required cell count. Before cell inoculation, cell viability was determined using trypan blue. 25 μL of cell suspension was stained with 25 μL of trypan blue and viable cells were counted using Neubauer's chamber. Cell number was adjusted by adding serum free media to achieve desired concentration, i.e., 10×10^7/mL.
Cells were diluted such that the concentration of the cells was 10 million cells/100 μL of serum free medium. Overnight thawed Matrigel and cells with medium were mixed 1:1 and a total volume of 200 μL was injected subcutaneously to the donor animals (n=5) at flank region.
Donor animals were monitored for solid tumor growth for at least 3-4 weeks. Tumor size was measured using digital caliper (MITUTOYO, Japan, CP-15Mx) and volume was calculated by using the formula: (L*W2)/2. Once the tumor reached required size ˜500 mm^3, the donor animals were humanely sacrificed, the tumor was harvested and fragmented into ˜30 mg size and implanted subcutaneously to experimental animals (n=50) using the device. All the animals was monitored alternate day for tumor growth/size.
Once the tumor size reached ˜100 mm^3, animals were selected and randomized by stratification method using tumor size into three groups (G1-G3). Treatment for G1-G3 was initiated at this stage. Each group was comprised of 8 animals.
• G1 was served as vehicle control group and treated with normal saline at the dose of 5 mL/kg, daily, intravenously for 3 weeks. • G2 was served as Reference Item treated group and treated with TMZ at the dose of 5 mg/kg, p.o., daily for 3 weeks. • G3 was treated with APT20TTMG at the dose of 20 mg/kg, intravenously, every third day (q3d) for 3 weeks.
Body weight and tumor size were measured weekly twice using digital caliper. At termination, blood was collected through retro-orbital route. Serum/plasma was separated and stored at deep freezer (−20° C.). Post blood collection, animals were humanely sacrificed by CO2 asphyxiation as per latest guidelines issued by CPCSEA. All the vital organ (brain, kidney, liver, lungs, heart) and tumor were dissected out. Vital organs were fixed in 10% NBF and stored. Tumor tissue was dissected out, weighed and portion of tumor tissue was fixed in 10% NBF and another portion is snap frozen and stored at deep freezer (−80° C.).
As shown in FIG. 34A-C, tumor fragments from the U-87MG cell line were implanted in the animals and once the tumor size reached ˜100 mm^3 animals were randomized into 3 experimental groups (G1, G2, and G3). G1: Vehicle, (G2) Reference Item Temozolomide, and (G3) APT20TTMG for a total of 22 days. (A) The tumor volume of the animals was measured twice/a week. (B) Animals were weighed throughout the experiment and the change in weight gain compared to pre-treatment weight was plotted. (C) After the euthanasia of the animals, the tumors were removed and weighed.

SH-SY5Y cell line = experiment: MTT cytotoxicity assay on human cancer cell panel (Example 2); assay type: cell-based; details: 0.03-30 μM tested, 0.1% FBS
Procedure: Cell lines were maintained in growth medium with 10% of Fetal Bovine Serum (FBS) until the time of the experiments. Cells were sub-cultured by trypsinization and splitting the cell suspension into fresh flasks and supplementing with fresh culture medium. To perform the assay, the cells were trypsinized, neutralized with complete medium (10% FBS), centrifuged, counted with assistance of a hemocytometer, and plated with the respective media with 10% FBS. Cell lines were plated at a density of 1×10^4 cells per well, other than the SH-SY5Y cell line which was plated at a density of 2.5×10^4. […] After 24, 48, 72 and 96 hours of incubation, the effect of ASMO1 and controls on cytotoxicity of cells was determined by MTT assay.
Briefly, plates were taken out and 20 μl of 5 mg/ml of MTT 3-(4,5-dimethythiazol-2-yl)-2,5-diphenyl tetrazolium bromide solution was added to all the wells. […] The absorbance of each well was then read at 540 nm using Synergy HT microplate reader.
As shown in FIG. 13A-D, up to 72 hours ASMO1 APT20TTMG seems to have a cytotoxic effect from the concentration of […]. At 96 hours, the profile is a little different, and the concentration of 0.3 μM seems to start some effect. […] MTT assay was performed in 4 distinct times and graphs are represented as absorbance (540 nm). […]

[2] = tested on: Human Glioblastoma Cancer (U-87MG) xenograft; experiment: Histopathology of tumor samples with scoring; assay type: in vivo, athymic nude mice; set-up: key: 4: Minimal; 3: Mild; 2: Moderate; 1: Prominent; details: individual animals; G3 APT20TTMG, G2 TMZ
From the text: The fixed tissues were processed for routine paraffin embedding followed by sectioning (3-6 micron). The sections were stained with hematoxylin and eosin. The prepared slides were examined under microscope by the study pathologist to record histopathological findings in tumor samples, related to capsule formation, cell type, connective tissue stroma, apoptosis, necrosis, lipid content, nucleus-to-cytoplasmic (N:C) ratio, nuclei mitotic figures, tumor grade, and level of differentiation. Each histopathological finding and tumor volume were assigned a score ranging from 1 to 4 (Table 7). The sum of these scores for each sample was used to infer the tumor aggressiveness.

## APT20TTMG: engineered polynucleotide ASMO1, 24 nt, SEQ ID NO: 3 gtccactaacctttcaggccagcg; targeting moieties 5′-GTCCA-3′ and 5′-CG-3′, U1 snRNP recruiting moiety (GTCCACTAACCTTTCAGGCCAGCG; sugars from the 5' end m5 d14 m5, all phosphorothioate, methylation of C and T or U not given here)
[1]; APT20TTMG 20 mg/kg i.v. every third day 3 weeks, TMZ 5 mg/kg p.o. daily 3 weeks
  tumor growth (tumor volume) vs vehicle group: inhibit tumor growth from day 16
[1]; between APT20TTMG, TMZ and vehicle groups, after euthanasia
  final tumor weight: no statistical difference
[1]; day 20
  tumor reduction in relation to the negative control: 46.7±10.7%
[1]; day 22
  tumor reduction in relation to the negative control: 42±13.2%
[1]; individual animals, G3 APT20TTMG, G2 TMZ
  Volume (tumor): Volume 321.5; also recorded: Volume 768.1; also recorded: Volume 796.8; also recorded: Volume 62.3; also recorded: Volume 1441.5; also recorded: Volume 953.5
SH-SY5Y cell line; 96 hours
  concentration that starts some effect (MTT): ≥ 0.3 µM
SH-SY5Y cell line; up to 72 hours
  concentration from which a cytotoxic effect is seen (MTT): ≥ 1 p M
[2]
  Score: Mitotic figures: 2
  Score: Necrosis: 3 and 2
